According to patent US5571825A, “Method of selectively inhibiting prostaglandin G/H synthase-2” (Warner-Lambert Company, priority 1995, dated 1996):
Values joined by “and” are separate entries in the source; they are usually repeats but may differ in a detail not shown here. Identical values can stand only once. Like-named read-outs stand apart in the source and are kept apart here.

Experiments:
[1] = biological target: T1, prostaglandin G/H synthase-1 (Ovis aries, UniProt P05979); experiment: Inhibition of prostaglandin G/H synthase-1 (conversion of [14C]arachidonic acid to products); assay type: biochemical; conditions: enzyme purified from ram seminal vesicles, 15 min preincubation, pH 7.4, room temperature
T1 construct: purified from ram seminal vesicles; from tissue; host or cells: ram seminal vesicles
T1 sequence (P05979 25-600): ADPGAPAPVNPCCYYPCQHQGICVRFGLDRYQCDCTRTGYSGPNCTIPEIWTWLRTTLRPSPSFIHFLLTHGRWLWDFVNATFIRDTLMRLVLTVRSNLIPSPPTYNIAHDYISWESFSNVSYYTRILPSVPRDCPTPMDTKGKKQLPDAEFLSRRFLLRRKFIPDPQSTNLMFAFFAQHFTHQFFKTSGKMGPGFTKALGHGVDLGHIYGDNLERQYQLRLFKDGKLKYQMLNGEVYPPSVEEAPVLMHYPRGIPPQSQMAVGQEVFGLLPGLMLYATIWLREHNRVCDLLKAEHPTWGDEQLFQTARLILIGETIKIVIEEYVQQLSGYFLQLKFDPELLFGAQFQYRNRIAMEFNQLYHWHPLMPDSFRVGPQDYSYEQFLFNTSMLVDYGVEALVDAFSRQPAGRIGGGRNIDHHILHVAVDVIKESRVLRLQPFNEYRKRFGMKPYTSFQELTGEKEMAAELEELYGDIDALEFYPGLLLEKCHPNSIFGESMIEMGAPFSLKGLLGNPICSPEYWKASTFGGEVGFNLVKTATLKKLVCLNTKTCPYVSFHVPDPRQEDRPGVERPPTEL
Protocol: (§1) The compounds of the present invention were evaluated as selective inhibitors of prostaglandin G/H synthase-2 by determining the effect of the compounds on the conversion of [^14 C]arachidonic acid to products by prostaglandin G/H synthase-2 purified from sheep placenta. This enzyme shares immunoreactivity and sequence homology with human prostaglandin G/H synthase-2. The effects of the compounds on prostaglandin G/H synthase-1 purified from ram seminal vesicles is used for the evaluation of inhibitory selectivity.
(§2) Each compound was preincubated for 15 minutes at room temperature in 50 mM sodium phosphate buffer at pH 7.4 containing 3.33 mM reduced glutathione, 2.67 mM epinephrine and 6.6% dimethylsulfoxide with sufficient enzyme to cause approximately 30% conversion of substrate to products after 15 minutes incubation in the absence of inhibitory compounds. Reactions with 24 μM arachidonic acid are initiated by the addition of a one third volume of 50 mM sodium phosphate buffer, pH 7.4, containing 3.33 mM reduced glutathione, 2.67 mM epinephrineβ and [^14 C] arachidonic acid.
(§3) Reactions were terminated after 15 minutes incubation at room temperature by the addition of 1.875 volumes of methanol:acetic acid (100:0.1) containing 0.5 mg/ml triphenylphosphine. The reaction products were separated from the unconverted substrate by high performance liquid chromatography and quantified by on-line radiometric detection. Compound effects were computed as percent inhibition of blank-adjusted mean product formation in uninhibited incubations.

[2] = biological target: T2, prostaglandin G/H synthase-2 (Ovis aries, UniProt P79208); experiment: Inhibition of prostaglandin G/H synthase-2 (conversion of [14C]arachidonic acid to products); assay type: biochemical; conditions: enzyme purified from sheep placenta, 15 min preincubation, pH 7.4, room temperature
T2 construct: purified from sheep placenta; from tissue; host or cells: sheep placenta
Protocol: as §1, §2, §3

[3] = pH 7.4, read-out: % Inhibition of PGHS-1 at 10 μM, 10 μM
[4] = pH 7.4, read-out: % Inhibition of PGHS-1 at 100 μM, 100 μM
[5] = pH 7.4, read-out: % Inhibition of PGHS-2 at 10 μM, 10 μM
[6] = pH 7.4, read-out: % Inhibition of PGHS-2 at 100 μM, 100 μM
[7] = pH 7.4, 10 μM, read-out: % Inhibition of PGHS-1 at 10 μM
[8] = pH 7.4, 100 μM, read-out: % Inhibition of PGHS-1 at 100 μM
[9] = pH 7.4, 10 μM, read-out: % Inhibition of PGHS-2 at 10 μM
[10] = pH 7.4, 100 μM, read-out: % Inhibition of PGHS-2 at 100 μM

T2 sequence (P79208 17-603): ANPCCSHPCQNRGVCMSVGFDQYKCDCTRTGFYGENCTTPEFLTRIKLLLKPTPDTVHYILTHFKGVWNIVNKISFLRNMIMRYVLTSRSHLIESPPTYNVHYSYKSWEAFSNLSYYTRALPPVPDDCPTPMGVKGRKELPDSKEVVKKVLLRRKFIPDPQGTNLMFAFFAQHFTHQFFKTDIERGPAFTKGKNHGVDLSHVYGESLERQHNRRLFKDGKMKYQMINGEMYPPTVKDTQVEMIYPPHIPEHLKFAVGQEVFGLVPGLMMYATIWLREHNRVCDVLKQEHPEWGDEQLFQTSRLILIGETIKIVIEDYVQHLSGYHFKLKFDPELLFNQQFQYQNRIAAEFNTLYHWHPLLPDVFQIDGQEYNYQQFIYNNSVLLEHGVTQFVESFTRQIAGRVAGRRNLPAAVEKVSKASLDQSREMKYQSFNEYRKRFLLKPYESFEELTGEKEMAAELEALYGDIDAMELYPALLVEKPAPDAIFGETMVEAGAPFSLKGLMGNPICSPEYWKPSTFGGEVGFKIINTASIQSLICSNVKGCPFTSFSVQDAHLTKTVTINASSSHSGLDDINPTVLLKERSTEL

Structure (SMILES) | inhibition at 10 µM [1, 3] [%] | inhibition at 100 µM [1, 4] [%] | inhibition at 10 µM [2, 5] [%] | inhibition at 100 µM [2, 6] [%] | % Inhibition of PGHS-1 at 100 μM [1] [%] | % Inhibition of PGHS-2 at 10 μM [2] [%] | % Inhibition of PGHS-2 at 100 μM [2] | % Inhibition of PGHS-1 at 10 μM ([1]; 10 μM) [%] | inhibition at 10 µM [1, 7] [%] | inhibition at 100 µM [1, 8] [%] | inhibition at 10 µM [2, 9] [%] | inhibition at 100 µM [2, 10] [%]
COC(=O)CSC(c1ccccc1)c1ccccc1 [Example 1, Methyl [(diphenylmethyl)thio]acetate] | 20 | 42 | 56 | 84 | – | – | – | – | – | – | – | –
COC(=O)CSC(c1ccc(OC)cc1)c1ccc(OC)cc1 [Example 2, Methyl [[bis-(4-methoxyphenyl)methyl]thio]acetate] | < 10 | < 10 | 23 | 79 | 13 | 34 | 74% | – | – | – | – | –
COC(=O)CSC(c1ccc(Cl)cc1)c1ccc(Cl)cc1 [Example 3, Methyl [[bis-(4-chlorophenyl)methyl]thio]acetate] | – | – | – | 45 | – | – | 46% | – | – | – | – | –
COC(=O)CSC(c1ccc(N(C)C)cc1)c1ccc(N(C)C)cc1 [Example 4, Methyl [[bis-(4-dimethylaminophenyl)methyl]thio]acetate] | – | – | – | – | 72 | 92 | 99% and 92% | 31 | 42 | 68 | 86 | 96
COC(=O)CSC(c1ccc(F)cc1)c1ccc(F)cc1 [Example 5, Methyl [[bis-(4-fluorophenyl)methyl]thio]acetate] | < 10 | < 10 | – | 52 | – | – | 40% | – | – | – | – | –
COC(=O)CSC(c1ccc(C)cc1)c1ccc(C)cc1 [Example 6, Methyl [[bis-(4-methylphenyl)methyl]thio]acetate] | < 10 | < 10 | 11 | 52 | – | – | – | – | – | – | – | –
COC(=O)CSC(c1ccccc1Cl)c1ccccc1Cl [Example 7, Methyl [[bis-(2-chlorophenyl)methyl]thio]acetate] | < 10 | < 10 | < 10 | 37 | – | – | – | – | – | – | – | –
COC(=O)CSC(c1ccccc1OC)c1ccccc1OC [Example 8, Methyl [[bis-(2-methoxyphenyl)methyl]thio]acetate] | – | – | 14 | 77 | – | – | – | – | – | – | – | –
COC(=O)CSC(c1cccs1)c1cccs1 [Example 9, Methyl [[bis-(2-thienyl)methyl]thio]acetate] | – | – | – | – | – | – | – | – | < 10 | < 10 | < 10 | 33
COC(=O)CSC1c2ccccc2-c2ccccc21 [Example 10, Methyl (9-fluorenylthio)acetate] | – | – | – | – | – | – | – | – | < 10 | 18 | 30 | 77
COC(=O)CSC(c1ccccc1)(c1ccccc1)c1ccccc1 [Example 11, Methyl [(triphenylmethyl)thio]acetate] | – | – | – | – | – | – | – | – | < 10 | 10 | 29 | 62
COC(=O)CSC(c1ccc(OC)cc1)(c1ccc(OC)cc1)c1ccc(OC)cc1 [Example 12, Methyl [[(tris-4-methoxyphenyl)methyl]thio]acetate] | – | – | – | – | 17 | 83 | 86% | – | – | 32 | 79 | 80
COC(=O)CSC(c1ccccc1)(c1ccc(OC)cc1)c1ccc(OC)cc1 [Example 13, Methyl [[(bis-4-methoxyphenyl)phenylmethyl]thio]acetate] | – | – | – | – | – | – | – | – | < 10 | < 10 | 41 | 49
COC(=O)CSC1(c2ccccc2)c2ccccc2-c2ccccc21 [Example 14, Methyl (9-phenylfluoren-9-yl-thio)acetate] | – | – | – | – | – | – | – | – | < 10 | < 10 | 14 | 50
COC(=O)CSC1c2ccccc2C=Cc2ccccc21 [Example 15, Methyl (5H-dibenzo[a,d]cyclohepten-5-yl-thio)acetate] | – | – | – | – | – | – | – | – | < 10 | < 10 | < 10 | 31
COC(=O)CSC1c2ccccc2Oc2ccccc21 [Example 16, Methyl (xanthen-9-yl-thio)acetate] | – | – | – | – | – | 50 | 85% | – | < 10 | – | 41 | 78
COC(=O)CSC1c2ccccc2CCc2ccccc21 [Example 17, Methyl (10, 11-dihydro-5H-dibenzo[a,d]cyclohepten-5-yl-thio)acetate] | – | – | – | – | – | – | – | – | < 10 | < 10 | 8 | 17
